Experimental data taken from patent USRE38132E1, “Phenylpyrrolidines, phenylimidazolidines,3-phenyl-1,3-oxizolidines and 3-phenyl-1,3-thiazolidines and their use in the treatment of inflammatory disease” (Boehringer Ingelheim Pharmaceuticals, Inc., priority 1997, dated 2003).

Columns and labels:
[1] = system: cell bound fibronectin receptor (VLA4) with fibronectin, SKW3 cells; assay: Inhibition of SKW3 cell binding to fibronectin (selectivity counter-assay); type: cell-based, human
Outline: (§1)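 Compound-treated, PMA-stimulated human T-cell line SKW3 (50 μg/mL PMA final) allowed to adhere for 2 h at 37° C to wells coated with sICAM-1 at 40 μg/mL or fibronectin at 100 μg/mL. After gentle RPMI wash, 50% inhibition concentration or range reported in μM.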

[2] = system: cell bound form of LFA-1 (CD18, CD11a) with ICAM-1, SKW3 cells; assay: Inhibition of SKW3 cell binding to ICAM-1 (PMA-stimulated); type: cell-based, human; conditions: Homo sapiens, SKW3, values marked c: no inhibition observed up to highest dose; read-out: Assay to Detect SKW3 Cells Binding to ICAM IC50
Outline: as §1

[3] = system: LFA-1 dependent aggregation of JY cells; assay: JY cell homotypic aggregation assay (PMA-stimulated); type: cell-based, human; conditions: Homo sapiens
Outline: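 Homotypic aggregation of EBV-transformed JY cells, stimulated by phorbol myristate acetate ([…]), scored visually over time in compound presence at 2·10^5 cells/well in serum-supplemented RPMI 1640. Result given as μM concentration or range inhibiting binding by 50%.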

SMILES | IC50 ([1]; Homo sapiens, SKW3, values marked c: no inhibition observed up to highest dose, read-out: Assay to Detect SKW3 Cells Binding to FIBRONECTIN IC50) [µM] | IC50 [2] [µM] | Cellular Toxicity Assay MTT LD50 (SKW3 cells) [µM] | IC50 [3] [µM] | Assay to Detect SKW3 Cells Binding to FIBRONECTIN IC50 ([1]; values marked c: no inhibition observed up to highest dose)
CC(=O)N1C(=O)N(c2cc(Cl)cc(Cl)c2)C(=O)[C@@]1(C)Cc1ccc(Br)cc1 [Example 102] | > 200 | 25 to 50 | >400 | 1.3 | –
C[C@]1(Cc2ccc(Br)cc2)NC(=O)N(c2cc(Cl)cc(Cl)c2)C1=O [Example 29] | – | 8 | 63 to 125 | 0.1 | No inh^c
